This assay has as its target T1, c-MYC (Homo sapiens, UniProt P01106).
T1 construct: Recombinant human c-MYC protein (ab169901)
Nature of the assay: microscale thermophoresis with fluorescently labelled recombinant human c-MYC. Type of assay: binding. Background: Microscale thermophoresis detects binding through changes in fluorescence in a small temperature gradient.

As usually defined, the Kd is the equilibrium constant for the complex coming apart.

The structures appear in SMILES notation.

T1 sequence (P01106 16-454): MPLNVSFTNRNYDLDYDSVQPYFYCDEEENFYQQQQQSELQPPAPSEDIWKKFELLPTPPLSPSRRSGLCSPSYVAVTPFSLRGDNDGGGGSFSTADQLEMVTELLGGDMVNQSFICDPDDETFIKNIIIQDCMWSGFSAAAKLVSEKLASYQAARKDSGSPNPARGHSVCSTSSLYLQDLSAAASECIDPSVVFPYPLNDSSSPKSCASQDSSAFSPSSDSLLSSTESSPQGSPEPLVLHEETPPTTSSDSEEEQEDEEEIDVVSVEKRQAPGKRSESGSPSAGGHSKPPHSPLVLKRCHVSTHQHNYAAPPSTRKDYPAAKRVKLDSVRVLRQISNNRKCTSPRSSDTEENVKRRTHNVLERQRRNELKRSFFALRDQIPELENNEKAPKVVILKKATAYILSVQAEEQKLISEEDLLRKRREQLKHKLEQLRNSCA

Consider `C[C@H]1[C@@H](OCC(CO[C@H]2O[C@@H]3O[C@@]4(C)CC[C@H]5[C@H](C)CC[C@@H]([C@H]2C)[C@@]35OO4)NNC(=O)c2ccncc2)O[C@@H]2O[C@@]3(C)CC[C@H]4[C@H](C)CC[C@@H]1[C@@]24OO3` (stereo partly shown) [ELI-XXIIID-98-2, ELI-XXIII-98-2], for which the Kd amounted to 1.19 ± 0.24 µM.
